Reference: patent US6716986B2, “Sulfuric acid mono-[3-({1-[2-(4-fluoro-phenyl)-ethyl]-piperidin-4-YL}-hydroxy-methyl)-2-methoxy-phenyl]ester” (Aventis Pharmaceuticals Inc., priority 1999, dated 2004)

Tests used:
human 5-HT2A = biological target: T1, human 5-HT2A (Homo sapiens, UniProt P28223); assay: In vitro inhibition of [3H]-ligand binding to human 5-HT2A receptor
T1 construct: expressed in transfected cells
Method: Cells stably expressing the human homologs of the receptors (dopamine D2L, serotonin 5HT2A and 5HT2C, α1A adrenergic; cloned and expressed at Hoechst Marion Roussel; Grandy et al., 1989; Monsma et al., 1993; Schwinn et al., 1995) were grown; cell membranes were prepared, and kept frozen until used (Kongsamut et al., 1996). The relevance of these binding sites has been extensively discussed in the literature (see for example: Carlsson & Carlsson, 1990; Creese et al., 1976; Gorman & Vargas, 1995; Meltzer et al., 1989). All binding parameters were optimized at Hoechst Marion Roussel; ligand Kds were determined using both saturation analysis (Scatchard) as well as kinetic analysis (association and dissociation rates). Each batch of membrane was validated by checking the ligand Kd, and rank order of potency of selected standard compounds. […]
(§1) Membranes were rapidly thawed and diluted to an appropriate concentration (between 20-150 μg protein/assay point depending on receptor expression level) in Tris buffer and homogenized. […] Microscint scintillation cocktail (40 μl) were added and the filter plates were counted in a Packard Top Count scintillation counter. Data were analyzed to determine Ki's for compounds of interest (Prusoff & Cheng, 19).Table: Receptor Binding Parameters.

human 5-HT2c = biological target: T2, human 5-HT2c (Homo sapiens, UniProt P28335); assay: In vitro inhibition of [3H]-ligand binding to human 5-HT2C receptor; details: [3H]mesulergine, CHO cell membranes
T2 construct: expressed in transfected cells
T2 sequence (P28335 33-458): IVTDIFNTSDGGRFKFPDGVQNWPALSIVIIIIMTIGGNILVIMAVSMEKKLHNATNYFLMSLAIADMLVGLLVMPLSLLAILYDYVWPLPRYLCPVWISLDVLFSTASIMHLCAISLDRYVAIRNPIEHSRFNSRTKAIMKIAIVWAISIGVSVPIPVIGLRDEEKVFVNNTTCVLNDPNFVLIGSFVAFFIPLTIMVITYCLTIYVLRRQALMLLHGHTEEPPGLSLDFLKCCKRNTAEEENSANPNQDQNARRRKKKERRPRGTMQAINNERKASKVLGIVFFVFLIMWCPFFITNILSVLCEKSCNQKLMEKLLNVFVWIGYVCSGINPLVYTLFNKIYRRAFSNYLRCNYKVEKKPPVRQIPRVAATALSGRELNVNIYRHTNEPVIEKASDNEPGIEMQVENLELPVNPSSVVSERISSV
Method: (§2) Cells stably expressing the human homologs of the receptors (dopamine D2L, serotonin 5HT2A and 5HT2C, α1A adrenergic; cloned and expressed at Hoechst Marion Roussel; Grandy et al., 1989; Monsma et al., 1993; Schwinn et al., 1995) were grown; cell membranes were prepared, and kept frozen until used (Kongsamut et al., 1996). […] All binding parameters were optimized at Hoechst Marion Roussel; ligand Kds were determined using both saturation analysis (Scatchard) as well as kinetic analysis (association and dissociation rates). Each batch of membrane was validated by checking the ligand Kd, and rank order of potency of selected standard compounds. Assays for the serotonin 5HT2A and dopamine D2L receptors were conducted at 37° C. in a Tris buffer containing salts (50 mM Tris Buffer, pH 7.7; 120 mM NaCl; 5 mM KCl; 2 mM CaCl2; 1 mM MgCl2), while the serotonin 5-HT2C and α1A adrenergic receptor assays used a different buffer without salts (50 mM Tris, 4 mM CaCl2 and 1% ascorbate, pH 7.4). […]
as §1, with “counter.” for “counter. Data were analyzed to determine Ki's for compounds of interest (Prusoff & Cheng, 19).Table: Receptor Binding Parameters.”

human D2L = biological target: T3, human D2L (Homo sapiens, UniProt P14416); assay: In vitro inhibition of [3H]-ligand binding to human D2L receptor; details: [3H]N-methyl spiperone, CHO cell membranes, 37° C.; read-out: D2 (Ki μM)
T3 construct: expressed in transfected cells
T3 sequence (P14416 whole entry): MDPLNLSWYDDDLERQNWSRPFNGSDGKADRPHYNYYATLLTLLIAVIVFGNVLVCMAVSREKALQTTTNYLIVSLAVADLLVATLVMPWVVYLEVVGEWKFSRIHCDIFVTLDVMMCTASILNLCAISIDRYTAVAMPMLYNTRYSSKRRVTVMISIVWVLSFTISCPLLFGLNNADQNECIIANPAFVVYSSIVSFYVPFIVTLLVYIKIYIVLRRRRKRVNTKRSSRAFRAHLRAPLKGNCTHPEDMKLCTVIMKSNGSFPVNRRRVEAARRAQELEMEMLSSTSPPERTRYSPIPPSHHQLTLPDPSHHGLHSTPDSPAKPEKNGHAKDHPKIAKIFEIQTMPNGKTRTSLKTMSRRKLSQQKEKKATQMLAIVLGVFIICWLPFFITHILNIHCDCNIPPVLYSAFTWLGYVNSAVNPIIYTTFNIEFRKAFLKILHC
Method: as §2
as §1, with “counter.” for “counter. Data were analyzed to determine Ki's for compounds of interest (Prusoff & Cheng, 19).Table: Receptor Binding Parameters.”

human α1A = biological target: T4, human α1A (Homo sapiens, UniProt P35348); assay: In vitro inhibition of [3H]-ligand binding to human α1A adrenergic receptor; details: [3H]prazosin, CHO cell membranes
T4 construct: expressed in transfected cells
T4 sequence (P35348 1-466): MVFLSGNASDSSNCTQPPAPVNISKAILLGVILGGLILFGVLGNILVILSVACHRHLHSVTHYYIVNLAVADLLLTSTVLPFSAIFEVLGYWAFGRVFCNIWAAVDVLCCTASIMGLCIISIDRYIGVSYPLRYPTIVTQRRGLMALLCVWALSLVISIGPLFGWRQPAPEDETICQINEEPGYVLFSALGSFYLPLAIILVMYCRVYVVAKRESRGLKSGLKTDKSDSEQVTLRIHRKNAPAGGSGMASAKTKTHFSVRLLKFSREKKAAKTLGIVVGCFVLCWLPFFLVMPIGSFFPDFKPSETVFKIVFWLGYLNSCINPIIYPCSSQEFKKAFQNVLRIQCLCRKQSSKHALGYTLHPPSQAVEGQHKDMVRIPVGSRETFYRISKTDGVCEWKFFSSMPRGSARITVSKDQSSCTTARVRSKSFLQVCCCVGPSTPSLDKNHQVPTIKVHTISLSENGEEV
Method: as §2
as §1, with “counter.” for “counter. Data were analyzed to determine Ki's for compounds of interest (Prusoff & Cheng, 19).Table: Receptor Binding Parameters.”

[1] = In vitro BBMEC permeability (transport studies); assay type: in vitro ADME; details: bovine, mean±standard deviation
Method: The procedure was performed according to: Kenneth L. Audus et al., Brain Microvessel Endothelial Cell Culture System (Chapter 13) pp 239-258. In Models for Assessing Drug Absorption and Metabolism, Ronald T. Borchardt et al. eds., Plenum Press, New York 1996, incorporated herein by reference.

T1 sequence (P28223 whole entry): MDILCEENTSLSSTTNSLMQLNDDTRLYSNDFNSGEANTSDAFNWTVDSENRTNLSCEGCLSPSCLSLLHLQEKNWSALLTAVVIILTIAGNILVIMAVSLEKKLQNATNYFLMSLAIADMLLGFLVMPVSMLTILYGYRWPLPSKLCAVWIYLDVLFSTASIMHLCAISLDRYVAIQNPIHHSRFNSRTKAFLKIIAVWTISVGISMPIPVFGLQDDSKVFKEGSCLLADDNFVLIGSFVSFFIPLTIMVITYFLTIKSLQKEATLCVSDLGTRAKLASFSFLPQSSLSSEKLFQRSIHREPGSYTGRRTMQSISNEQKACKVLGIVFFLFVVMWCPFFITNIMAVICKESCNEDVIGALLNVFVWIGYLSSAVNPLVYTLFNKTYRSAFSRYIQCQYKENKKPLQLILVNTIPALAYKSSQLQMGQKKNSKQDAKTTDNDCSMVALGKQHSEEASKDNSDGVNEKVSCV

Work on COc1c(OS(=O)(=O)O)cccc1C(O)C1CCN(CCc2ccc(F)cc2)CC1 (stereo not drawn) [Example 1H, Sulfuric acid mono-(+)-[3-(-{1-[2-(4-fluoro-phenyl)-ethyl]-piperidin-4-yl}-hydroxy-methyl)-2-methoxy-phenyl] ester] yielded a Ki (human 5-HT2A; [3H]N-methyl spiperone, BHK cell membranes, 37° C.) of 0.16 µM, a Ki (human 5-HT2c) greater than 1 µM and a Ki (human D2L) greater than 1 µM. It also gave a Ki (human α1A) greater than 1 µM.

In the case of OC[C@@H](O)[C@@H](O)[C@H](O)[C@H](O)CO [Mannitol (standard), Mannitol], the Papp at 5.4 μM [1] is reported as 27.6 ± 2.3 ×10⁻⁶ cm/s.

Molecule CN1CN(c2ccccc2)C2(CCN(CCCC(=O)c3ccc(F)cc3)CC2)C1=O [[^3H]N-methyl spiperone, reference compound] has a Kd (human 5-HT2A; human 5-HT2A, BHK, saturation (Scatchard) and kinetic analysis) of 0.92 nM.
